Results: PubChem BioAssay AID256 (DTP/NCI, 2004)
Inconclusive results and toxic doses are left out.

Test system: CD2F1 mice, L1210 leukemia ip, survival T/C
Test: NCI In Vivo Anticancer Drug Screen. Data for tumor model L1210 Leukemia (intraperitoneal) in CD2F1 (CDF1) mice
Conditions: higher = longer survival
Method in brief: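 Each value reflects a quotient of treated over vehicle control outcomes in mice with a transplanted tumor.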

[1] = endpoint: mean survival time, dose: 25.0 mg/kg/injection, schedule: Q04DX002 (ip), vehicle: saline with Tween-80
[2] = endpoint: mean survival time, dose: 50.0 mg/kg/injection, schedule: Q04DX002 (ip), vehicle: saline with Tween-80
[3] = endpoint: mean survival time, dose: 100.0 mg/kg/injection, schedule: Q04DX003 (ip), vehicle: saline with Tween-80
[4] = endpoint: mean survival time, dose: 200.0 mg/kg/injection, schedule: Q04DX003 (ip), vehicle: saline with Tween-80
[5] = endpoint: mean survival time, dose: 400.0 mg/kg/injection, schedule: Q04DX003 (ip), vehicle: saline with Tween-80
[6] = endpoint: mean survival time, dose: 100.0 mg/kg/injection, schedule: Q01DX001 (ip), vehicle: saline
[7] = endpoint: mean survival time, dose: 200.0 mg/kg/injection, schedule: Q01DX001 (ip), vehicle: saline
[8] = endpoint: mean survival time, dose: 400.0 mg/kg/injection, schedule: Q01DX001 (ip), vehicle: saline
[9] = endpoint: mean survival time, dose: 100.0 mg/kg/injection, schedule: Q04DX002 (ip), vehicle: saline with Tween-80

Structure (SMILES): COC(=O)CCC([NH-])C(=O)O.COC(=O)CCC([NH-])C(=O)O.[NH-]C1CCCCC1[NH-].[Pt+4] (stereo not given)
- T/C (endpoint: median survival time, dose: 6.25 mg/kg/injection, schedule: Q04DX003 (ip), vehicle: saline): 100 % of control
- T/C (endpoint: median survival time, dose: 12.5 mg/kg/injection, schedule: Q04DX003 (ip), vehicle: saline): 96 % of control
- T/C (endpoint: median survival time, dose: 25.0 mg/kg/injection, schedule: Q04DX003 (ip), vehicle: saline): 97 % of control
- T/C (endpoint: median survival time, dose: 50.0 mg/kg/injection, schedule: Q04DX003 (ip), vehicle: saline): 108 % of control
- T/C (endpoint: median survival time, dose: 100.0 mg/kg/injection, schedule: Q04DX003 (ip), vehicle: saline): 110 % of control

Structure (SMILES): O.O=[N+]([O-])O.[NH-]C1CCCCC1[NH-].[Pt+2] (stereo not given)
- T/C (endpoint: mean survival time, dose: 0.32 mg/kg/injection, schedule: Q04DX003 (ip), vehicle: other): 113 % of control
- T/C (endpoint: mean survival time, dose: 0.63 mg/kg/injection, schedule: Q04DX003 (ip), vehicle: other): 119 % of control

Structure (SMILES): O=[N+]([O-])c1ccc(N(CCO)CCO)c2c1no[n+]2[O-]
- T/C (endpoint: median survival time, dose: 12.5 mg/kg/injection, schedule: Q01DX009 (ip), vehicle: saline with Tween-80): 114 % of control
- T/C (endpoint: median survival time, dose: 25.0 mg/kg/injection, schedule: Q01DX009 (ip), vehicle: saline with Tween-80): 111 % of control
- T/C (endpoint: median survival time, dose: 50.0 mg/kg/injection, schedule: Q01DX009 (ip), vehicle: saline with Tween-80): 114 % of control

Structure (SMILES): COc1ccc(C2(O)C3CCC2CC3)cc1 (stereo not given)
- T/C (endpoint: mean survival time, dose: 12.5 mg/kg/injection, schedule: Q04DX002 (ip), vehicle: saline with Tween-80): 96 % of control
- T/C [1]: 101 % of control
- T/C [2]: 108 % of control

Structure (SMILES): FC(F)(F)COP1(OCC(F)(F)F)=NP(OCC(F)(F)F)(OCC(F)(F)F)=NP(c2ccccc2)(c2ccccc2)=N1
- T/C (endpoint: mean survival time, dose: 100.0 mg/kg/injection, schedule: Q04DX003 (ip), vehicle: saline): 102 % of control
- T/C (endpoint: mean survival time, dose: 200.0 mg/kg/injection, schedule: Q04DX003 (ip), vehicle: saline): 100 % of control
- T/C (endpoint: mean survival time, dose: 400.0 mg/kg/injection, schedule: Q04DX003 (ip), vehicle: saline): 100 % of control

Structure (SMILES): CC1NC(C(=O)O)Cc2cc(O)c(O)cc21 (stereo not given)
- T/C [3]: 102 % of control
- T/C [4]: 98 % of control
- T/C [5]: 100 % of control

Structure (SMILES): COC12C(COC(N)=O)C3=C(C(=O)C(C)=C(N4CC4)C3=O)N1CC1NC12 (stereo not given)
- T/C (endpoint: mean survival time, dose: 0.14 mg/kg/injection, schedule: Q01DX007 (ip), vehicle: acetone): 124 % of control
- T/C (endpoint: mean survival time, dose: 0.25 mg/kg/injection, schedule: Q01DX001 (ip), vehicle: acetone): 106 % of control
- T/C (endpoint: mean survival time, dose: 0.33 mg/kg/injection, schedule: Q01DX001 (ip), vehicle: acetone): 116 % of control
- T/C (endpoint: mean survival time, dose: 0.5 mg/kg/injection, schedule: Q01DX007 (ip), vehicle: acetone): 153 % of control
- T/C (endpoint: mean survival time, dose: 1.0 mg/kg/injection, schedule: Q01DX001 (ip), vehicle: carboxymethylcellulose (CMC)): 151 % of control
- T/C (endpoint: mean survival time, dose: 1.5 mg/kg/injection, schedule: Q01DX001 (ip), vehicle: carboxymethylcellulose (CMC)): 114 % of control

Structure (SMILES): COC1OC(CO)C(O)C1n1cnc2c(=O)[nH]c(N)nc21 (stereo not given)
- T/C (endpoint: mean survival time, dose: 50.0 mg/kg/injection, schedule: Q01DX001 (ip), vehicle: saline with Tween-80): 97 % of control
- T/C (endpoint: mean survival time, dose: 100.0 mg/kg/injection, schedule: Q01DX001 (ip), vehicle: saline with Tween-80): 95 % of control
- T/C (endpoint: mean survival time, dose: 200.0 mg/kg/injection, schedule: Q01DX001 (ip), vehicle: saline with Tween-80): 97 % of control

Structure (SMILES): CCOC(=O)C(C(=O)OC)C(=O)OCC
- T/C [6]: 95 % of control
- T/C [7]: 103 % of control
- T/C [8]: 103 % of control

Structure (SMILES): [Cl][Pt+2][Cl].[NH-]CC([NH-])CN
- T/C (endpoint: mean survival time, dose: 0.39 mg/kg/injection, schedule: Q04DX003 (ip), vehicle: saline): 89 % of control
- T/C (endpoint: mean survival time, dose: 0.78 mg/kg/injection, schedule: Q04DX003 (ip), vehicle: saline): 97 % of control
- T/C (endpoint: mean survival time, dose: 1.56 mg/kg/injection, schedule: Q04DX003 (ip), vehicle: saline): 103 % of control
- T/C (endpoint: mean survival time, dose: 3.12 mg/kg/injection, schedule: Q04DX003 (ip), vehicle: saline): 103 % of control
- T/C (endpoint: mean survival time, dose: 6.25 mg/kg/injection, schedule: Q04DX003 (ip), vehicle: saline): 111 % of control
- T/C (endpoint: mean survival time, dose: 12.5 mg/kg/injection, schedule: Q04DX003 (ip), vehicle: saline): 109 % of control

Structure (SMILES): COc1ccn(C2OCCC(N=[N+]=[N-])C2O)c(=O)n1 (stereo not given)
- T/C (endpoint: median survival time, dose: 12.5 mg/kg/injection, schedule: Q01DX005 (ip), vehicle: alkali diluted with saline): 109 % of control
- T/C (endpoint: median survival time, dose: 25.0 mg/kg/injection, schedule: Q01DX005 (ip), vehicle: alkali diluted with saline): 102 % of control
- T/C (endpoint: median survival time, dose: 50.0 mg/kg/injection, schedule: Q01DX005 (ip), vehicle: alkali diluted with saline): 108 % of control
- T/C (endpoint: median survival time, dose: 100.0 mg/kg/injection, schedule: Q01DX005 (ip), vehicle: alkali diluted with saline): 109 % of control
- T/C (endpoint: median survival time, dose: 200.0 mg/kg/injection, schedule: Q01DX005 (ip), vehicle: alkali diluted with saline): 98 % of control

Structure (SMILES): COC(=O)CCN(c1ccccc1)S(=O)(=O)c1ccc(C)cc1
- T/C (endpoint: mean survival time, dose: 100.0 mg/kg/injection, schedule: Q01DX009 (ip), vehicle: Klucel (hydroxypropylcellulose) (HPC)): 98 % of control
- T/C (endpoint: mean survival time, dose: 200.0 mg/kg/injection, schedule: Q01DX009 (ip), vehicle: Klucel (hydroxypropylcellulose) (HPC)): 100 % of control
- T/C (endpoint: mean survival time, dose: 400.0 mg/kg/injection, schedule: Q01DX009 (ip), vehicle: Klucel (hydroxypropylcellulose) (HPC)): 98 % of control

Structure (SMILES): O=C(CC(=O)c1ccccc1F)Nc1ccc([N+](=O)[O-])cc1
- T/C (endpoint: mean survival time, dose: 100.0 mg/kg/injection, schedule: Q01DX009 (ip), vehicle: saline with Tween-80): 90 % of control
- T/C [3]: 96 % of control
- T/C (endpoint: mean survival time, dose: 200.0 mg/kg/injection, schedule: Q01DX009 (ip), vehicle: saline with Tween-80): 93 % of control
- T/C [4]: 95 % of control
- T/C (endpoint: mean survival time, dose: 400.0 mg/kg/injection, schedule: Q01DX009 (ip), vehicle: saline with Tween-80): 88 % of control
- T/C [5]: 97 % of control

Structure (SMILES): COC(=O)NCCNC(=O)OC
- T/C [6]: 98 % of control
- T/C [7]: 98 % of control
- T/C [8]: 101 % of control

Structure (SMILES): O=C(O)c1cccc2[nH]c(=O)oc(=O)c12
- T/C [3]: 103 % of control
- T/C [4]: 95 % of control
- T/C [5]: 93 % of control

Structure (SMILES): C[CH2][Pb]([CH2]C)([CH2]C)[O]C(=O)c1ccc2ccccc2n1
- T/C (endpoint: mean survival time, dose: 0.4 mg/kg/injection, schedule: Q01DX009 (ip), vehicle: saline): 103 % of control
- T/C (endpoint: mean survival time, dose: 0.8 mg/kg/injection, schedule: Q01DX009 (ip), vehicle: saline): 103 % of control
- T/C (endpoint: mean survival time, dose: 1.6 mg/kg/injection, schedule: Q01DX009 (ip), vehicle: saline): 101 % of control

Structure (SMILES): CC(C)(C)CC(C)(C)NCC(O)COc1ccc(C(C)(C)c2ccc(OCC(O)CNC(C)(C)CC(C)(C)C)cc2)cc1 (stereo not given)
- T/C (endpoint: mean survival time, dose: 3.0 mg/kg/injection, schedule: Q01DX009 (ip), vehicle: saline with Tween-80): 102 % of control
- T/C (endpoint: mean survival time, dose: 3.12 mg/kg/injection, schedule: Q01DX009 (ip), vehicle: Klucel (hydroxypropylcellulose) (HPC)): 93 % of control
- T/C (endpoint: mean survival time, dose: 6.0 mg/kg/injection, schedule: Q01DX009 (ip), vehicle: saline with Tween-80): 100 % of control
- T/C (endpoint: mean survival time, dose: 6.25 mg/kg/injection, schedule: Q01DX009 (ip), vehicle: Klucel (hydroxypropylcellulose) (HPC)): 94 % of control
- T/C (endpoint: mean survival time, dose: 12.0 mg/kg/injection, schedule: Q01DX009 (ip), vehicle: saline with Tween-80): 94 % of control
- T/C (endpoint: mean survival time, dose: 12.5 mg/kg/injection, schedule: Q01DX009 (ip), vehicle: Klucel (hydroxypropylcellulose) (HPC)): 100 % of control

Structure (SMILES): CN(C)c1cc(C(C)(C)C)nc(C(C)(C)C)c1
- T/C (endpoint: mean survival time, dose: 12.5 mg/kg/injection, schedule: Q04DX002 (ip), vehicle: saline): 111 % of control
- T/C [1]: 98 % of control
- T/C (endpoint: mean survival time, dose: 25.0 mg/kg/injection, schedule: Q04DX002 (ip), vehicle: saline): 118 % of control
- T/C [2]: 95 % of control
- T/C (endpoint: mean survival time, dose: 50.0 mg/kg/injection, schedule: Q04DX002 (ip), vehicle: saline): 100 % of control
- T/C [9]: 95 % of control

Structure (SMILES): CCOC(=O)C(OC(=O)c1ccccc1)c1ccccc1 (stereo not given)
- T/C (endpoint: mean survival time, dose: 100.0 mg/kg/injection, schedule: Q01DX009 (ip), vehicle: other): 98 % of control
- T/C (endpoint: mean survival time, dose: 200.0 mg/kg/injection, schedule: Q01DX009 (ip), vehicle: other): 96 % of control
- T/C (endpoint: mean survival time, dose: 400.0 mg/kg/injection, schedule: Q01DX009 (ip), vehicle: other): 96 % of control

Structure (SMILES): N#C[SH2+].N#C[SH2+].N#C[SH2+].N#C[SH2+].[Cu+2].c1ccc(C[P+](c2ccccc2)(c2ccccc2)c2ccccc2)cc1
- T/C (endpoint: mean survival time, dose: 6.0 mg/kg/injection, schedule: Q04DX003 (ip), vehicle: saline): 91 % of control
- T/C (endpoint: mean survival time, dose: 12.0 mg/kg/injection, schedule: Q04DX003 (ip), vehicle: saline): 89 % of control
- T/C (endpoint: mean survival time, dose: 25.0 mg/kg/injection, schedule: Q04DX003 (ip), vehicle: saline): 96 % of control

Structure (SMILES): Nc1n[nH]c(=S)s1
- T/C [9]: 107 % of control
- T/C (endpoint: mean survival time, dose: 200.0 mg/kg/injection, schedule: Q04DX002 (ip), vehicle: saline with Tween-80): 96 % of control
